From ChEMBL document CHEMBL1149689, “Pomiferin, histone deacetylase inhibitor isolated from the fruits of Maclura pomifera” (Bioorg Med Chem Lett, 2007)

Experiments:
Histone deacetylase = experiment: Inhibition of HDAC in HeLa cells; assay type: cell-based, Homo sapiens
PC-3 = experiment: cells; assay type: functional; conditions: Homo sapiens, PC-3, 21 h
Description: Growth inhibition of human PC3 cells after 21 hrs by MTT assay

ACHN = experiment: cells; assay type: functional; conditions: Homo sapiens, 21 h
Description: Growth inhibition of human ACHN cells after 21 hrs by MTT assay

NCI-H23 = experiment: cells; assay type: functional; conditions: Homo sapiens, NCI-H23, 21 h
Description: Growth inhibition of human NCI-H23 cells after 21 hrs by MTT assay

MDA-MB-231 = experiment: cells; assay type: functional; conditions: Homo sapiens, MDA-MB-231, 21 h
Description: Growth inhibition of human MDA-MB-231 cells after 21 hrs by MTT assay

LOX IMVI = experiment: cells; assay type: functional; conditions: Homo sapiens, 21 h
Description: Growth inhibition of human LOX-IMVI cells after 21 hrs by MTT assay

HCT-15 = experiment: cells; assay type: functional; conditions: Homo sapiens, HCT-15, 21 h
Description: Growth inhibition of human HCT15 cells after 21 hrs by MTT assay

in vitro = conditions: human, hepatocytes
Description: Growth inhibition of human hepatocytes after 21 hrs by MTT assay

IC50 (Histone deacetylase)	GI50 (PC-3)	GI50 (ACHN)	GI50 (NCI-H23)	GI50 (MDA-MB-231)	GI50 (HCT-15)	GI50 at 21 h (in vitro)	Structure (SMILES)	GI50 (LOX IMVI)
6.53 µM	12.3 µM	12.1 µM	12 µM	11.3 µM	9.65 µM	> 500 µM	CC(C)=CCc1c2c(c3occ(-c4ccc(O)cc4)c(=O)c3c1O)C=CC(C)(C)O2 [OSAJIN]	11 µM
1.05 µM	3.95 µM	3.18 µM	5.14 µM	2.92 µM	1.32 µM	123 µM	CC(C)=CCc1c2c(c3occ(-c4ccc(O)c(O)c4)c(=O)c3c1O)C=CC(C)(C)O2 [POMIFERIN]	3.34 µM
